Assays:
[1] = system: MiaPaCa2 pancreatic cancer cells; assay: Apoptosis by cell death ELISA, 72 hours; assay type: cell-based, human; settings: MiaPaCa2, 50 μM
Experimental: (§1) FIGS. 38A and B are graphs showing the effect of tocotrienols on pancreatic cancer survival (Trypan Blue and Cell death ELISA). […] T3=tocotrienol, T=tocopherol, vit E=vitamin E succinate, gem=gemcitabine, 5-FU=fluorouracil.
(§2) MIA PaCa2 cells (3×10^3) were plated in 96 well plates and treated the following day with different compositions of tocoperhol, tocotrienol, gemcitabine, or fluorouracil. The cells were harvested 72 hours later and tested using trypan blue assay and cell death ELISA.

[2] = system: AsPc1 pancreatic cancer cells; assay: Effect of tocotrienols on pancreatic cancer proliferation (MTT), 72 hours; assay type: cell-based, human; settings: AsPc1, 40 to 100 μM, vs vehicle
Excerpt: (§3) FIGS. 11A and B are graphs showing the effect of tocotrienols on pancreatic cancer proliferation (MTT). […] Points, means; bars, SE (n=3).

[3] = system: MiaPaCa2 pancreatic cancer cells; assay: as above; assay type: cell-based, human; settings: MiaPaCa2, 40 to 100 μM, vs vehicle
Excerpt: as §3

SW1990 cells = assay: Annexin V-FITC staining, flow cytometry for apoptosis; assay type: cell-based, human; settings: SW1990, varying concentrations, 24 hours
Experimental: FIG. 5 is a graph wherein SW1990 pancreatic cancer cells were treated with in varying concentrations of δ-tocotrienol or vehicle for 24 hours. Cells were collected and stained with Annexin V-FITC and analyzed by flow cytometry for apoptosis.
MiaPaCa2 and HPDE 6C7 cells were cultured, as discussed above, and treated with δ-tocotrienol or vehicle. […] MiaPaCa-2, BxPc-3, and SW1990 pancreatic cancer cells were treated with in varying concentrations of δ-tocotrienol or vehicle for 24 hours. The cells were then harvested for annexin V-FITC staining and analyzed by flow cytometry.

[4] = system: MiaPaCa2 pancreatic cancer cells; assay: Cell death by trypan blue assay, 72 hours; assay type: cell-based, human; settings: MiaPaCa2, 50 μM
Experimental: as §1, §2

[5] = system: pancreatic cancer metastasis; assay: Pancreatic cancer metastasis in vivo (luminescence); parameters: species or system mouse
Excerpt: Images show comparison of vehicle vs. 100 MPK
The apoptotic effect of delta-tocotrienol was selective for neoplastic cells as normal pancreatic cells and in vitro immortalized human pancreatic ductal epithelial cells were not sensitive to delta-tocotrienol.

[6] = system: MiaPaCa2 pancreatic cancer cells; assay: Malignant transformation (Soft Agar) colony formation; assay type: cell-based, human; settings: MiaPaCa2, 50 μM, vs vehicle
Experimental: FIG. 20 is a graph showing the effect of tocotrienols on pancreatic cancer malignant transformation (Soft Agar). […] Bars, SE (n=3). *p<0.001 vs. vehicle. **p<0.02 vs. vehicle. ***p<0.05 vs. vehicle. T=tocopherol, T3=tocotrienol.
MiaPaCa2 cells (3×10^3) were cultured as described in the Examples above, in 96-well plates and treated with 50 μM of different tocopherol or tocotrienol.

[7] = system: human pancreatic ductal epithelial cells transformed with oncogenic K-ras (HPDE-K-ras); assay: Proliferation (MTT) of K-ras transformed ductal epithelial cells; assay type: cell-based; settings: 72 hours
Experimental: FIGS. 36A and B are graphs showing the effect of tocotrienols on Human Pancreatic Ductal Epithelial Kras Transformed cells (MTT). (A) Tocotrienols (10-100 μM) had no effect on the proliferation of normal immortalized human pancreatic ductal epithelial cells at 72 hours. […] Points, means; bars, SE (n=3). *p<0.001 vs. vehicle. # p<0.02 vs. vehicle
The Ras effector pathways Raf-MEK-ERK and PI3 kinase-AKT are important for cell proliferation and survival, respectively. Pancreatic cancer cell lines (MIA PaCa2, SW1990, BXPC3) and HPDE 6C7 cells were treated with 8-tocotrienol (20 μM) and cell lysates were collected and prepared at progressive time intervals as described above. Proteins from lysates were run by SDS PAGE and immunoblotted with the following antibodies: Ras, p-cRaf (ser 338), p-MEK1/2, MEK1/2, pERK 44/42, ERK 44/42 (Cell Signaling) and c-Raf (BD Transduction Laboratories). […] The MIA PaCa2 and SW1990 cells were then tested for AKT inhibition. The cells were treated with δ-tocotrienol (20 μM) for 24 and 48 hours and cell lysates were run by SDS-PAGE and immunoblotted for p-AKT and AKT (Cell Signaling). […] Taken together, the inhibition of downstream effectors of oncogenic Ras signaling by δ-tocotrienol without an effect on Ras protein levels may indicate a negative regulatory role of 8-tocotrienol on the function of oncogenic Ras. The pancreatic ductal epithelial cell proliferative inhibition by δ-tocotrienol was tested to see if it occurs through blocking aberrant signal transduction cascades. Immortalized human pancreatic ductal epithelial cells (HPDE) and human pancreatic ductal epithelial cells that were transformed by stable transfection of a mutated K-ras oncogene (HPDE-K-ras) were used to test the. effect of tocotrienols on the proliferation of HPDE and HPDE-K-ras.

[8] = system: SW1990 pancreatic cancer cells; assay: MTS assay of SW1990 cultures, single 50 μM dose; assay type: cell-based, human; settings: SW1990, 50 μM
Experimental: SW1990 pancreatic cancer cells […] were cultured in complete DMEM media containing 10% fetal bovine serum (FBS) and 1% penicillin-streptomycin, and 1% L-glutamine. BxPc-3 pancreatic cancer cells were cultured in complete RPMI media containing 10% fetal bovine serum (FBS), and 1% penicillin-streptomycin, 1% HEPES buffer, 1% sodium pyruvate and 1% L-glutamine. HPDE6-C7 cells were cultured in serum-free keratinocyte SFM media. All cells were maintained at 37° C. in a humidified incubator with 5% CO2. The cells were treated with a single 50 μM dose of vehicle (ethanol extracted olive oil), T3 alpha (alpha tocotrienol), T3 beta (beta tocotrienol), T3 gamma (gamma tocotrienol), T3 delta (delta tocotrienol), T alpha (alpha tocopherol), T beta (beta tocopherol), TS (tocopherol succinate), GG (geranylgeraniol), SA (succinic acid). A control culture (i.e., only vehicle with no treatment) was grown alongside the treatments for comparison. Cell viability was measured using MTS assay at preselect times of 24, 48, or 72 hours after treatment.

Row | Compound | apoptosis (Cell death ELISA) [1] | proliferation (MTT) [2] | proliferation (MTT) [3] | cell death (Trypan Blue) [4] | malignant transformation (Soft Agar) [6] | proliferation (MTT) [7] | rel amnt (relative value set to the control) ([8]; 24 hours) | MTS assay result, run 1 ([8]; 24 hours) | MTS assay result, run 2 ([8]; 24 hours) | MTS assay result, run 3 ([8]; 24 hours) | MTS assay result, run 4 ([8]; 24 hours) | MTS assay result, run 5 ([8]; 24 hours) | MTS assay result, run 6 ([8]; 24 hours) | MTS assay result, run 7 ([8]; 24 hours) | MTS assay result, run 8 ([8]; 24 hours) | MTS assay result, run 9 ([8]; 24 hours) | rel amnt (relative value set to the control) ([8]; 48 hours) | MTS assay result, run 1 ([8]; 48 hours) | MTS assay result, run 2 ([8]; 48 hours) | MTS assay result, run 3 ([8]; 48 hours) | other results
1 | CC(C)=CCC/C(C)=C/CC/C(C)=C/CC[C@]1(C)CCc2cc(O)cc(C)c2O1 [T3 delta, delta tocotrienol] | significantly induced | significantly decreased the proliferation | significantly decreased the proliferation | significantly induced the death | significantly inhibited the malignant transformation | significantly inhibited | 97 | 0.158 | 0.149 | 0.157 | 0.126 | 0.147 | 0.135 | 0.13 | 0.142 | 0.143 | 83 | 0.131 | 0.133 | 0.12 | induction of apoptosis (annexin V-FITC) (SW1990 cells): dose dependent induction of apoptosis; tumor response at the highest dose ([5]; highest dose, compared to vehicle/PBS): tumor regression; pancreatic cancer metastasis ([5]; in vivo, vs vehicle/PBS): inhibits pancreatic cancer metastasis; MTS assay result, run 4 ([8]; 48 hours): 0.12; MTS assay result, run 5 ([8]; 48 hours): 0.126; MTS assay result, run 6 ([8]; 48 hours): 0.119; MTS assay result, run 7 ([8]; 48 hours): 0.12; MTS assay result, run 8 ([8]; 48 hours): 0.142; MTS assay result, run 9 ([8]; 48 hours): 0.127; rel amnt (relative value set to the control) ([8]; 72 hours): 132; MTS assay result, run 1 ([8]; 72 hours): 0.667; MTS assay result, run 2 ([8]; 72 hours): 0.615; MTS assay result, run 3 ([8]; 72 hours): 0.61; MTS assay result, run 4 ([8]; 72 hours): 0.587; MTS assay result, run 5 ([8]; 72 hours): 0.582; MTS assay result, run 6 ([8]; 72 hours): 0.491; MTS assay result, run 7 ([8]; 72 hours): 0.52; MTS assay result, run 8 ([8]; 72 hours): 0.604; MTS assay result, run 9 ([8]; 72 hours): 0.584
2 | alpha tocotrienol [T3 alpha] | no effect | no effect | no effect | no effect | no effect | no effect | 121 | 0.168 | 0.183 | 0.175 | 0.148 | 0.195 | 0.176 | 0.206 | 0.172 | 0.178 | 116 | 0.168 | 0.162 | 0.16 | MTS assay result, run 4 ([8]; 48 hours): 0.146; MTS assay result, run 5 ([8]; 48 hours): 0.175; MTS assay result, run 6 ([8]; 48 hours): 0.205; MTS assay result, run 7 ([8]; 48 hours): 0.2; MTS assay result, run 8 ([8]; 48 hours): 0.187; MTS assay result, run 9 ([8]; 48 hours): 0.175; rel amnt (relative value set to the control) ([8]; 72 hours): 61; MTS assay result, run 1 ([8]; 72 hours): 0.279; MTS assay result, run 2 ([8]; 72 hours): 0.282; MTS assay result, run 3 ([8]; 72 hours): 0.29; MTS assay result, run 4 ([8]; 72 hours): 0.238; MTS assay result, run 5 ([8]; 72 hours): 0.302; MTS assay result, run 6 ([8]; 72 hours): 0.279; MTS assay result, run 7 ([8]; 72 hours): 0.25; MTS assay result, run 8 ([8]; 72 hours): 0.254; MTS assay result, run 9 ([8]; 72 hours): 0.273

Source: US8846653B2, “Delta-tocotrienol treatment and prevention of pancreatic cancer” (University of South Florida, priority 2006, dated 2014)
